The structures appear in SMILES notation.

One test concerns the target CSNK2A2 (Homo sapiens, UniProt P19784). Description: HotSpot […]-ATP kinase assay. Format: biochemical.
The next test deals with BRAF V600E (Homo sapiens, UniProt P15056, V600E). The experiment in a line: NanoBRET target engagement in HEK293 cells. Format: cell-based.
For another test, the target named is BRAF (Homo sapiens, UniProt P15056). Description: HotSpot […]-ATP kinase assay. Format: biochemical.
Chain of BRAF (P15056 2-766): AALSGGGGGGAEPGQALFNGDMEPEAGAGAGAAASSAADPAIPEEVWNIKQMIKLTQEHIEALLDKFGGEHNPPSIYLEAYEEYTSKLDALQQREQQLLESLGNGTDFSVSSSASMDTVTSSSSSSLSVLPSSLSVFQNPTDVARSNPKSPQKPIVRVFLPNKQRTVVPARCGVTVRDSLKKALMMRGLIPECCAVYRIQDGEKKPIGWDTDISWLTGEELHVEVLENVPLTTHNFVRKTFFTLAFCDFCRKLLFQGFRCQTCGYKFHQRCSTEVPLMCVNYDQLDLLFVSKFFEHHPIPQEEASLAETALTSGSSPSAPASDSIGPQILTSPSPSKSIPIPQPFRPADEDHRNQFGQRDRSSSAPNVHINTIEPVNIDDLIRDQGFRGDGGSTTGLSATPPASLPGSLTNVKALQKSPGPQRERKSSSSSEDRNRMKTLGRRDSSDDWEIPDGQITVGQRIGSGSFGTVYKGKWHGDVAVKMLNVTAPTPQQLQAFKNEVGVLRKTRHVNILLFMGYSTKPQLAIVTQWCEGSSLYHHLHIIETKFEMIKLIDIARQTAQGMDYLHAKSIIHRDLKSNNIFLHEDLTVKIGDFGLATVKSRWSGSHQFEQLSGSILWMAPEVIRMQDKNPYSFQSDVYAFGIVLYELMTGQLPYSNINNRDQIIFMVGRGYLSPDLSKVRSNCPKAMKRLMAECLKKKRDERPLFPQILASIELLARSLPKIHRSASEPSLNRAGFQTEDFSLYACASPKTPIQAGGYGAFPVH

Chain of CSNK2A2 (P19784 whole entry): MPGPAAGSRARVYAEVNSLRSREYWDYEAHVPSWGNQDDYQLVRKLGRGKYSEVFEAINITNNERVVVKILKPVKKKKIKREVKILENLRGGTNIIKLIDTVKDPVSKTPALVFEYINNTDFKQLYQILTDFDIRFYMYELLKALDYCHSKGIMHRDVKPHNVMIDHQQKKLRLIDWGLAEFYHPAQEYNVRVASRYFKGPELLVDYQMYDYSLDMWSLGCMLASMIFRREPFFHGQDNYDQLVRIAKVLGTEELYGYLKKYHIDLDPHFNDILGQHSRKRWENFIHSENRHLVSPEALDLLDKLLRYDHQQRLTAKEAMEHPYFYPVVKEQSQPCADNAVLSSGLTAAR
Chain of BRAF V600E (P15056 2-766 V600E): as the sequence (P15056 2-766) above, with V599E counted along it

Take `CCN1CCN(Cc2ccc(Nc3ncc(F)c(-c4cc(F)c5nc(C)n(C(C)C)c5c4)n3)nc2)CC1` [abemaciclib]: the IC50 on CSNK2A2 came to 36.4 nM.

Turning to `Cc1ccc(NC(=O)c2ccc(CN3CC[C@H](N(C)C)C3)c(C(F)(F)F)c2)cc1Nc1nccc(-c2cncnc2)n1` [bafetinib], the IC50 on BRAF V600E turned out to be 217 nM; against BRAF, 41.6 nM.

A word on the IC50: it is the concentration that gives 50% inhibition. A higher IC50 goes with a need for much substance.

(Values after article PMC10840709 (Cell chemical biology, 2023).)
